The values that follow come from ChEMBL document CHEMBL3132794, “Imidazolium salts as antifungal agents: activity against emerging yeast pathogens, without human leukocyte toxicity” (Medchemcomm, 2013).

Data set [1] in a line: Toxicity against human Leukocyte cells assessed as reduction in cell viability by trypan blue exclusion assay. Format: cell-based.
The test system of data set [2] is Trichosporon asahii. Nature of the data set: Inhibition of ergosterol biosynthesis in Trichosporon asahii clinical isolates assessed as reduction in mean cellular ergosterol content by spectrophotometry. In kind it is functional.
Data set [3] relates to Candida parapsilosis. Nature of the data set: Antifungal activity against Candida parapsilosis clinical isolates by broth microdilution method. Format: functional. The conditions noted are these: Lodderomyces parapsilosis. A general note: Dilution methods test growth across graded concentrations, often in twofold steps.
In data set [4] the test system is Candida tropicalis. Nature of the data set: Inhibition of ergosterol biosynthesis in Candida tropicalis clinical isolates assessed as reduction in mean cellular ergosterol content by spectrophotometry. In kind it is functional.
Data set [5] in a line: Toxicity against human Leukocyte cells assessed induction of structural damage by microscopy. Format: cell-based.
Data set [6] has as its system Trichosporon asahii. Nature of the data set: Antifungal activity against Trichosporon asahii clinical isolates by broth microdilution method. In kind it is functional.
In data set [7] the test system is Candida tropicalis. Nature of the data set: Antifungal activity against Candida tropicalis clinical isolates by broth microdilution method. In kind it is functional.
For data set [8], the system named is Nakaseomyces glabratus. Nature of the data set: Antifungal activity against Candida glabrata clinical isolates by broth microdilution method. In kind it is functional.
The test system of data set [9] is Nakaseomyces glabratus. Nature of the data set: Inhibition of ergosterol biosynthesis in Candida glabrata clinical isolates assessed as reduction in mean cellular ergosterol content by spectrophotometry. In kind it is functional.
Data set [10] in a line: Genotoxicity in human Leukocyte cells assessed as induction of DNA single strand breaks by single gel electrophoresis based alkaline comet assay. In kind it is toxicity, cell-based.
Data set [11] has as its system Candida parapsilosis. Nature of the data set: Inhibition of ergosterol biosynthesis in Candida parapsilosis clinical isolates assessed as reduction in mean cellular ergosterol content by spectrophotometry. In kind it is functional.

Converted amounts (≈) assume the structure as drawn.

Regarding `CCCCCCCCCCCCCCCCn1cc[n+](C)c1.F[B-](F)(F)F`, the Activity result in data set [1], in [5] and in data set [10] was “Non-toxic” throughout. Further, the “inhibition (INH)” value with Trichosporon asahii [2], in the data set with Candida tropicalis [4], in the data set on Nakaseomyces glabratus [9] and in the data set on Candida parapsilosis [11] was 33% in each case. Further, the MIC in the data set on Candida parapsilosis [3] is 0.4 µg/mL; in the data set on Trichosporon asahii [6], 1.95 µg/mL; in the data set on Candida tropicalis [7] it was 0.9 µg/mL; in the data set on Nakaseomyces glabratus [8], 0.9 µg/mL. The MIC50 was 3.9 µg/mL in the data set with Candida parapsilosis [3], 3.9 µg/mL in the data set on Trichosporon asahii [6], 0.9 µg/mL against Candida tropicalis [7] and 0.9 µg/mL against Nakaseomyces glabratus [8].
`CCCCCCCCCCCCCCCCn1cc[n+](C)c1.F[P-](F)(F)(F)(F)F`: the Activity result in data set [1], in data set [5] and in data set [10] was “Non-toxic” throughout. Besides, the minimal inhibitory concentration (MIC) against Candida parapsilosis [3] is 0.9 µg/mL; in the data set on Trichosporon asahii [6], 15.6 µg/mL; with Candida tropicalis [7], 0.9 µg/mL; in the data set on Nakaseomyces glabratus [8], 1.9 µg/mL. The MIC50 against Candida parapsilosis [3] stood at 7.8 µg/mL; against Trichosporon asahii [6], 15.6 µg/mL; with Candida tropicalis [7] it was 1.9 µg/mL; against Nakaseomyces glabratus [8], 3.9 µg/mL.
Take `CCCCCCCCCCn1cc[n+](C)c1.CS(=O)(=O)[O-]`: the Activity entry in [1], in data set [5] and in data set [10] was “Non-toxic” throughout. Besides, the MIC against Candida parapsilosis [3] amounted to 1.9 µg/mL; against Trichosporon asahii [6], 31.2 µg/mL; with Candida tropicalis [7] it was 1.9 µg/mL; against Nakaseomyces glabratus [8], 15.6 µg/mL. The MIC50 in the data set on Candida parapsilosis [3] was found to be 7.8 µg/mL; against Trichosporon asahii [6], 62.5 µg/mL; with Candida tropicalis [7], 1.9 µg/mL; against Nakaseomyces glabratus [8], 31.2 µg/mL.
With `CCCCCCCCCCCCCCn1cc[n+](C)c1.O=S(=O)([N-]S(=O)(=O)C(F)(F)F)C(F)(F)F`, the Activity entry in data set [1], in data set [5] and in data set [10] was “Non-toxic” throughout. For the same molecule, the MIC against Candida parapsilosis [3] amounted to 0.9 µg/mL; in the data set with Trichosporon asahii [6], 31.2 µg/mL; in the data set on Candida tropicalis [7] it was 0.9 µg/mL; in the data set on Nakaseomyces glabratus [8], 3.9 µg/mL. For the same molecule, the MIC50 in the data set with Candida parapsilosis [3] was 0.9 µg/mL; with Trichosporon asahii [6], 62.5 µg/mL; against Candida tropicalis [7] it was 0.9 µg/mL; in the data set with Nakaseomyces glabratus [8], 15.6 µg/mL.
For `OC(Cn1cncn1)(Cn1cncn1)c1ccc(F)cc1F` [FLUCONAZOLE], the MIC worked out at 1 µg/mL (≈ 3.27 µM) against Candida parapsilosis [3], 4 µg/mL (≈ 13.1 µM) with Trichosporon asahii [6], 2 µg/mL (≈ 6.53 µM) with Candida tropicalis [7] and 4 µg/mL (≈ 13.1 µM) against Nakaseomyces glabratus [8]. For the same molecule, the MIC50 turned out to be 1 µg/mL (≈ 3.27 µM) in the data set with Candida parapsilosis [3], 8 µg/mL (≈ 26.1 µM) in the data set on Trichosporon asahii [6], 8 µg/mL (≈ 26.1 µM) in the data set with Candida tropicalis [7] and 8 µg/mL (≈ 26.1 µM) against Nakaseomyces glabratus [8].
In the case of `CC(=O)N1CCN(c2ccc(OCC3COC(Cn4ccnc4)(c4ccc(Cl)cc4Cl)O3)cc2)CC1` (stereo unspecified) [KETOCONAZOLE], the minimal inhibitory concentration (MIC) in the data set on Candida parapsilosis [3] stood at 0.125 µg/mL (≈ 0.235 µM); with Trichosporon asahii [6] it was 0.25 µg/mL (≈ 0.47 µM); in the data set on Candida tropicalis [7], 0.25 µg/mL (≈ 0.47 µM); against Nakaseomyces glabratus [8] it was 0.5 µg/mL (≈ 0.941 µM). Also, the MIC50 in the data set with Candida parapsilosis [3] is 1 µg/mL (≈ 1.88 µM); in the data set with Trichosporon asahii [6], 4 µg/mL (≈ 7.53 µM); with Candida tropicalis [7], 4 µg/mL (≈ 7.53 µM); against Nakaseomyces glabratus [8], 4 µg/mL (≈ 7.53 µM).
`CCCCCCCCCCn1cc[n+](C)c1.[Cl-]`: the Activity entry in data set [1], in data set [5] and in [10] was “Non-toxic” throughout. Besides, the minimum inhibitory concentration (MIC) in the data set on Candida parapsilosis [3] worked out at 1.9 µg/mL; against Trichosporon asahii [6], 7.8 µg/mL; against Candida tropicalis [7] it was 0.9 µg/mL; in the data set with Nakaseomyces glabratus [8], 7.8 µg/mL. The MIC50 against Candida parapsilosis [3] came out at 7.8 µg/mL; against Trichosporon asahii [6] it was 31.2 µg/mL; with Candida tropicalis [7], 1.9 µg/mL; against Nakaseomyces glabratus [8] it was 15.6 µg/mL.
For `CCCCCCCCCCCCCCCCn1cc[n+](C)c1.[Cl-]`, the Activity entry in [1], in [5] and in [10] was “Non-toxic” in each case. The MIC with Candida parapsilosis [3], against Trichosporon asahii [6], in the data set with Candida tropicalis [7] and in the data set on Nakaseomyces glabratus [8] was 0.9 µg/mL in each case. The MIC50 with Candida parapsilosis [3], in the data set with Trichosporon asahii [6], in the data set on Candida tropicalis [7] and in the data set with Nakaseomyces glabratus [8] was 0.9 µg/mL in each case.

Broadly, the MIC is the lowest concentration found to suppress growth. Read a high MIC as a need for much substance. Broadly, the MIC50 is the lowest concentration that inhibits either 50% of growth or 50% of the strains tested, depending on the study.
